{"source": "patent US20230265479A1", "about": "(priority 2020, published 2023)", "key": {"[1]": {"test_system": "Firefly Luciferase reporter gene driven by the C3P3-G2 system in HEK-293 cells", "type": "cell-based, human"}, "[2]": {"test_system": "Firefly Luciferase reporter gene driven by the C3P3-G1 system in HEK-293 cells", "type": "cell-based, human"}, "EIF2AK2": {"target": "EIF2AK2 (Homo sapiens, UniProt P19525)", "sequence (P19525 whole entry)": "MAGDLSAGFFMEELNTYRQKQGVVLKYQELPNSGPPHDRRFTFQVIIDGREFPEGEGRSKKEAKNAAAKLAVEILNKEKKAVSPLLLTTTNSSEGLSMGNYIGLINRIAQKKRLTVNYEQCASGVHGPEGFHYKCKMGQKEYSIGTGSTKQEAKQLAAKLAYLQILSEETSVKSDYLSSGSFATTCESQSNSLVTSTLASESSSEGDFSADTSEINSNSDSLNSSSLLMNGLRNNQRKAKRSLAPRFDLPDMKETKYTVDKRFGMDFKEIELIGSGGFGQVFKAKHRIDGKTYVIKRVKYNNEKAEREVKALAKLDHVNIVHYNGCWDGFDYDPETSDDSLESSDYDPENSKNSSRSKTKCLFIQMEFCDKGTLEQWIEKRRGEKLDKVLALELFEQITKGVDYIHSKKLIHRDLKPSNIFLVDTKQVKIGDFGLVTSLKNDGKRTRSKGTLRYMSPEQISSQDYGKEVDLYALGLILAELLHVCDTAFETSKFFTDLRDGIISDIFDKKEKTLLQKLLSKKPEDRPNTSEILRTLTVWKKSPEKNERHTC", "details": "binds ATP-binding site; inhibits RNA-induced EIF2AK2 autophosphorylation (Jammi et al. 2003); cited from earlier work"}}, "data": [{"compound": "O=C1Nc2ccc3ncsc3c2/C1=C/c1cnc[nH]1", "note": "[CAS 608512-97-6]", "values": [{"measurement": "Maximum efficacy, relative ratio vs. negative control cells", "setting": "[1]", "result": 1.67, "unit": "fold"}, {"measurement": "Maximum efficacy, relative ratio vs. negative control cells", "setting": "[2]", "result": 1.31, "unit": "fold"}, {"measurement": "IC50", "setting": "EIF2AK2", "result": 210, "unit": "nM"}]}]}
